Measured values: patent publication US12582670B2, “Lignin solvation using aqueous biologically compatible buffers” (priority 2019, dated 2026)
Entries after “also recorded” stand apart in the source; their conditions may differ.

Columns and labels:
[1] = tested on: S. agalactiae (NCTC 8181); test: β-lactam disk diffusion susceptibility test with and without lignin; type: cell-based, Streptococcus agalactiae; conditions: disks 10 μg penicillin, 10 μg ampicillin, 30 μg amoxicillin+clavulanic acid, 24 h
Description: (§1) Example 13. Sensitivity of S. agalactiae and S. uberis to β-lactams and lignin. Type strains of S. agalactiae and S. uberis Diemhofer (NCTC 8181 and NCTC 3858, respectively) were obtained from the American Type Culture Collection (ATCC) as lyophilized pellets. Cells were revived by resuspension in 5 mL Todd Hewitt broth (THB, 3% w/v) and static incubation for 24 h at 37° C. Culture OD600 was measured and the volume to achieve OD600=0.025 was added to 50 mL fresh THB in 250 mL Erlenmeyer flasks and grown for 2 hours; S. agalactiae cultures were supplemented with 1 μM hemin and 10 μM menaquinone and grown at 37° C. and 200 rpm, while S. uberis was grown statically at 37° C. Cultures were centrifuged at 4500 rpm for 10 minutes. Due to differences in pellet sizes, S. agalactiae pellets were resuspended in 1 mL Hank's Balanced Salt Solution (HBSS), and S. uberis pellets were resuspended in 400 μL HBSS in order to normalize the OD600 of the two cell suspensions. […] Paper disks containing 10 μg penicillin, 10 μg ampicillin, and 30 μg amoxicillin+clavulanic acid (Oxoid, Basingstoke, UK) were placed on the agar, then incubated for 24 h at 37° C. Plates were inspected for zones of clearance around the disks indicating susceptibility.

[2] = tested on: S. aureus UAMS-1 (methicillin-sensitive, MSSA); test: β-lactam disk diffusion susceptibility test; type: cell-based, Staphylococcus aureus; conditions: disks 0.2 μg oxacillin, 2 μg ampicillin, 2 μg penicillin, 24 h
Description: (§2) Example 9. β-lactam disk diffusion susceptibility test. […] Methicillin-susceptible and methicillin-resistant S. aureus, UAMS-1 and LAC-13C, respectively, were streaked for isolation on tryptic soy agar (TSA) plates and incubated for 24 hours at 37° C. Overnight cultures were prepared by picking a single colony of each strain from its plate and adding to separate 3 mL sterile tryptic soy broth (TSB) in a 5 mL culture tube and incubating 14-16 h at 37° C. and 250 rpm. Next, the optical density at 600 nm (OD600) was measured to prepare fresh 50 mL cultures with OD600=0.1 to be grown for 2-3 hours at 37° C. and 250 rpm. Cultures were pelleted by centrifugation at 4500 rpm, then resuspended and concentrated in 500 μL sterile 1× Hank's Balanced Salt Solution (HBSS). […] To achieve lawn-style growth, cells were spread across the plates with sterile glass beads.

[3] = tested on: S. aureus LAC-13C (methicillin-resistant, MRSA); test: β-lactam disk diffusion susceptibility test; type: cell-based, Staphylococcus aureus; conditions: disks 1 μg oxacillin, 10 μg ampicillin, 10 μg penicillin, 24 h
Description: as §2

[4] = tested on: S. uberis Diemhofer (NCTC 3858); test: β-lactam disk diffusion susceptibility test with and without lignin; type: cell-based, Streptococcus uberis; conditions: disks 10 μg penicillin, 10 μg ampicillin, 30 μg amoxicillin+clavulanic acid, 24 h
Description: as §1

S. aureus UAMS-1 = test: Tunicamycin disk diffusion assay; type: cell-based, Staphylococcus aureus; conditions: 2 μg disk, 24 h
Description: Tunicamycin disk diffusion assay: S. aureus UAMS-1 cultures were prepared by inoculating separate 15-mL culture tubes containing 3 mL sterile 3% (w/v) TSB with a single colony and incubated 14-16 h at 37° C. while shaking at 250 rpm. Fresh 50-mL cultures with an initial OD600=0.025 were prepared and incubated for 2 h at 37° C. and 250 rpm. Cells were collected by centrifugation at 4,500 rpm and resuspended in 500 μL sterile Hank's Balanced Salt Solution (HBSS; Corning, Corning, NY). […] Cells were spread across the plates with sterile glass beads and the plates were left open to dry in a clean laminar-flow hood for 10-15 min. […] Three biological replicates were analyzed.

[5] = in the presence of 5 mg/mL lignin
[6] = TSA with 50 mM MOPS and 5 mg/mL lignin
[7] = TSA without lignin (50 mM MOPS)

CC1(C)S[C@@H]2[C@H](NC(=O)[C@H](N)c3ccccc3)C(=O)N2[C@H]1C(=O)O [ampicillin]
sensitivity (zone of clearance around disk) [1, 5]: highly sensitive | sensitivity (zone of clearance around disk) ([1]; without lignin (50 mM MOPS)): some susceptibility; also recorded: moderately sensitive | susceptibility (zone of clearance around disk) [2, 6]: at least partially sensitive/susceptible; also recorded: increased sensitivity/susceptibility | susceptibility (zone of clearance around disk) [2, 7]: completely or nearly completely resistant; also recorded: moderately resistant | susceptibility (zone of clearance around disk) [3, 6]: increased sensitivity/susceptibility | sensitivity (zone of clearance around disk) [4, 5]: highly sensitive | sensitivity (zone of clearance around disk) ([4]; without lignin (50 mM MOPS)): some susceptibility; also recorded: moderately sensitive

Cc1onc(-c2ccccc2)c1C(=O)N[C@@H]1C(=O)N2[C@@H]1SC(C)(C)[C@@H]2C(=O)O [oxacillin]
susceptibility (zone of clearance around disk) [2, 6]: increased sensitivity/susceptibility | susceptibility (zone of clearance around disk) [2, 7]: sensitive/susceptible | susceptibility (zone of clearance around disk) [3, 6]: sensitive; also recorded: increased sensitivity/susceptibility | susceptibility (zone of clearance around disk) [3, 7]: completely resistant

amoxicillin+clavulanic acid
sensitivity (zone of clearance around disk) [1, 5]: highly sensitive | sensitivity (zone of clearance around disk) ([1]; without lignin (50 mM MOPS)): some susceptibility; also recorded: moderately sensitive | sensitivity (zone of clearance around disk) [4, 5]: highly sensitive | sensitivity (zone of clearance around disk) ([4]; without lignin (50 mM MOPS)): some susceptibility; also recorded: moderately sensitive

penicillin
sensitivity (zone of clearance around disk) [1, 5]: highly sensitive | sensitivity (zone of clearance around disk) ([1]; without lignin (50 mM MOPS)): some susceptibility; also recorded: moderately sensitive | susceptibility (zone of clearance around disk) [2, 6]: at least partially sensitive/susceptible; also recorded: increased sensitivity/susceptibility | susceptibility (zone of clearance around disk) [2, 7]: completely or nearly completely resistant; also recorded: moderately resistant | susceptibility (zone of clearance around disk) [3, 6]: increased sensitivity/susceptibility | sensitivity (zone of clearance around disk) [4, 5]: highly sensitive | sensitivity (zone of clearance around disk) ([4]; without lignin (50 mM MOPS)): some susceptibility; also recorded: moderately sensitive

tunicamycin
zone of clearance around disk (S. aureus UAMS-1; TSA with 50 mM MOPS + 5 mg/mL lignin): susceptibility | zone of clearance around disk (S. aureus UAMS-1; TSA with 50 mM MOPS + 5 mg/mL lignin, listed as Tunicamycin): a clearance zone was observed | zone of clearance around disk (S. aureus UAMS-1; TSA with 50 mM MOPS, no lignin): tolerance of the antibiotic | zone of clearance around disk (S. aureus UAMS-1; TSA with 50 mM MOPS, no lignin, listed as Tunicamycin): No clearance zone was observed
